Converted amounts (≈) assume the structure as drawn. “And” between values parts separate entries of the source, which are not always exact repeats. Equal values may be shown once.
Key:
[1] = target: Tc-CYP51 (Trypanosoma cruzi, UniProt Q7Z1V1); assay: T. cruzi sterol 14α-demethylase (CYP51) enzyme assay; assay type: biochemical; details: for Tc CYP51 Hill / Emax / IC50: individual replicate; for Emax: read-out: Tc CYP51 Max Effect; for IC50: read-out: Tc CYP51 pIC50 (converted); for fold more potent against the parasites than against Tc-CYP51: urea series
Sequence of Tc-CYP51 (Q7Z1V1 whole entry): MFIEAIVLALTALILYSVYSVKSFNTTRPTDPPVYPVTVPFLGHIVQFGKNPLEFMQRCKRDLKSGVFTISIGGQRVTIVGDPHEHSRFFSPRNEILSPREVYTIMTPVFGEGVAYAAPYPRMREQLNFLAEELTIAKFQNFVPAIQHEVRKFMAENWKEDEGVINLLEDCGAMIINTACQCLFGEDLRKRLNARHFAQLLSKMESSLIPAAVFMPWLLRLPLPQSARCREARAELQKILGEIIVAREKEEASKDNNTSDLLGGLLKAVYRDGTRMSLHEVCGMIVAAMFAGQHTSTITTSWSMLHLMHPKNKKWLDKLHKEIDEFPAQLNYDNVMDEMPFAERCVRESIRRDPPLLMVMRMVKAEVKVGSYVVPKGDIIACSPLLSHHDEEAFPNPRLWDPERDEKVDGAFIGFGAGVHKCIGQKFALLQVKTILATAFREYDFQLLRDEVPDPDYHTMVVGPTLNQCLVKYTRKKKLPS
Method: T. cruzi sterol 14α-demethylase (CYP51) enzyme assay
Potency against T. cruzi CYP51 was determined using a previously described fluorescence assay. Average potency for compound 1 was determined with three experimental replicates. Potencies in Fig.3 are from single experimental replicates. ^5

[2] = Human liver microsomal intrinsic clearance; assay type: in vitro ADME; details: human liver microsomes
[3] = Mouse liver microsomal intrinsic clearance; assay type: in vitro ADME; details: mouse liver microsomes
[4] = ChromLogD pH7.4 (chromatographic hydrophobicity index), PFI, LLE; details: for PFI: ChromLogDpH7.4 + no. aromatic rings; for chromatographic logD: pH 7.4
Text: [23] Alongside PFI, LLE (ligand lipophilic efficiency, T. cruzi pIC50 - ChromLogDpH7.4) was also monitored to identify changes where the impact on potency was not driven by increasing lipophilicity.

[5] = system: host Vero cell; assay: Vero host cell toxicity in the intracellular T. cruzi assay; assay type: cell-based; design: key to Max Effect (Vero): % inhibition; 0% = DMSO control, 100% = 16 μM nifurtimox control; details: for IC50: host Vero cell, read-out: Vero pIC50 (converted)
Method: (§1) T. cruzi intracellular potency and rate-of-kill assay (high content imaging) ^1
(§2) Silvio X10/7 T. cruzi trypomastigotes were incubated at 37°C 5% CO2 with 1.6×10^7 Vero cells overnight at MOI10 in MEM media supplemented with 10% foetal calf serum (FCS). Extracellular parasites were removed by aspirating cell culture supernatant, and washing Vero monolayer with 10 ml serum-free MEM three times. Vero cells were then harvested by trypsinization and dispensed at 2×10^3 per well (50 μl in MEM/ 1% FCS) into 384 well plates pre-stamped with compounds in DMSO using automated washer/ dispenser EL406 and liquid handling software (Biotek). Plates were then incubated at 37°C in 5% CO2 for 96 h. For rate-of-kill determination, plates were incubated for 24h, 48h, 72h and 96h.
(§3) Plates were subsequently fixed with 4% formaldehyde for 20 min, permeabilised and stained with 5 μgml^-1 Hoechst 33342/ 0.1% Triton/ PBS Thimerosal 20 min. Automated imaging was performed by an Operetta high content imaging system using 20x objective (PerkinElmer). Images were analysed with an algorithm generated in Columbus (PerkinElmer) to segment Vero cell nuclei, Vero cell cytoplasm and parasite nuclei/ kinetoplasts, reporting number of amastigotes per Vero cell, percent infected Vero cells and total number of Vero cells. Compound potencies against T. cruzi parasites were calculated in IDBS Activitybase using percent infected Vero cells and Vero toxicity curves generated using number of host cells. All data was normalised to percent inhibition based on the raw data values for the 100% effect control (16 μM nifurtimox) and the 0% effect control (DMSO) on each plate at each time point. Curve fitting was carried out using a four-parameter equation as previously described. ^2 For rate-of-kill experiments the percent infected cells at each compound concentration was plotted against time.

[6] = Kinetic aqueous solubility by CAD; assay type: physicochemical; details: kinetic from dmso stock; kinetic, CAD; read-out: Aqueous solubility
[7] = system: intracellular T. cruzi amastigotes; assay: T. cruzi intracellular potency assay (high content imaging); assay type: cell-based, Trypanosoma cruzi; design: key to Max Effect (T. cruzi): % inhibition; 0% = DMSO control, 100% = 16 μM nifurtimox control; details: for Emax / EC50 / IC50: Trypanosoma cruzi; for Emax / EC50 / Hill slope (T. cruzi) / Max Effect (T. cruzi) / pEC50 (T. cruzi): individual replicate; for Emax: read-out: Max Effect (T. cruzi); for EC50: read-out: pEC50 (T. cruzi) (converted); for IC50: intracellular amastigotes in Vero cells, 96 h, mean of N ≥ 3, read-out: T. cruzi pIC50 (converted)
Method: as §1, §2, §3

[8] = Chlorocebus sabaeus, Vero, individual replicate

With `COc1ccc(CN2C(=O)C(N)C(=O)N(CC3CC(F)(F)C3)c3ccccc32)cc1` (stereo not shown) [Compound 20, 3-amino-1-((3,3-difluorocyclobutyl)methyl)-5-(4-methoxybenzyl)-1,5-dihydro-2H-benzo[b][1,4]diazepine-2,4(3H)-dione] the “Tc CYP51 Hill” value [1] was 1.3, the Emax [1] was 99% and the IC50 [1] was 0.1 µM. For the same molecule, the “HLM CLi” value [2] was 0.5 mL/min/g, the “MLM CLi” value [3] was 12 mL/min/g and the PFI [4] was 6.2. It also gave a chromatographic logD [4] of 4.2, an EC50 [5, 8] greater than 50.1 µM and an IC50 ([5]; Chlorocebus sabaeus) greater than 50.1 µM. The “Max Effect (Vero)” value ([5]; individual replicate) was 30 and 22 and 25 and 9, the solubility [6] was greater than 402 µM and the Emax [7] was 84%. For the same molecule, the EC50 [7] was 1.26 µM, the IC50 [7] was 1.26 µM and the “Hill slope (T. cruzi)” value [7] was 2.8 and 3.6 and 20.7. The “Max Effect (T. cruzi)” value [7] was 90 and 80 and 87 and the “pEC50 (T. cruzi)” value [7] was 6.1 and 6.0 and 5.8.
For `COc1ccc(CN2C(=O)C(N)C(=O)N(c3ccccc3)c3ccccc32)cc1` (stereo not shown) [Compound 15, 3-amino-1-(4-methoxybenzyl)-5-phenyl-1,5-dihydro-2H-benzo[b][1,4]diazepine-2,4(3H)-dione], the “Tc CYP51 Hill” value [1] was 1.2, the Emax [1] was 94% and the IC50 [1] was 0.2 µM. The “HLM CLi” value [2] was 1.3 mL/min/g, the “MLM CLi” value [3] was 16 mL/min/g and the PFI [4] was 7.1. The chromatographic logD [4] was 4.1, the EC50 [5, 8] was greater than 50.1 µM and the IC50 ([5]; Chlorocebus sabaeus) was greater than 50.1 µM. The “Max Effect (Vero)” value ([5]; individual replicate) was 9 and 4.52 and 11 and 20, the solubility [6] was greater than 232 µM and the Emax [7] was 87%. The EC50 [7] was 1.58 µM, the IC50 [7] was 1.58 µM and the “Hill slope (T. cruzi)” value [7] was 1.8 and 4.1 and 3.2 and 10.2. For the same molecule, the “Max Effect (T. cruzi)” value [7] was 92 and 88 and the “pEC50 (T. cruzi)” value [7] was 5.7 and 5.9.
For `COc1ccc(N2C(=O)C(NC(=O)Nc3ccc(C)cc3)C(=O)Nc3ccccc32)cc1` (stereo not shown) [Compound 4, 1-(1-(4-methoxyphenyl)-2,4-dioxo-2,3,4,5-tetrahydro-1H-benzo[b][1,4]diazepin-3-yl)-3-(p-tolyl)urea], the “Tc CYP51 Hill” value [1] was 0.9, the Emax [1] was 89% and the IC50 [1] was 1.58 µM. The “fold more potent against the parasites than against Tc-CYP51” value (from here on “fold more potent”) [1] was 10 fold, the “HLM CLi” value [2] was less than 0.4 mL/min/g and the “MLM CLi” value [3] was 1.2 mL/min/g. The PFI [4] was 7.8, the chromatographic logD [4] was 4.8 and the EC50 [5, 8] was greater than 50.1 µM. For the same molecule, the IC50 ([5]; Chlorocebus sabaeus) was greater than 50.1 µM, the “Max Effect (Vero)” value ([5]; individual replicate) was 15 and 26 and 13 and 12 and 17 and 16 and 20 and 4 and the solubility [6] was 56 µM (≈ 24.1 µg/mL). The IC50 [7] was 1 µM, the “Hill slope (T. cruzi)” value [7] was 5.1 and 2.8 and 7.4 and 2.7 and 3.6 and 0.6 and 4.0 and 2.2 and the “Max Effect (T. cruzi)” value [7] was 106 and 89 and 74 and 85 and 86 and 109 and 107. The “pEC50 (T. cruzi)” value [7] was 5.7 and 6.1 and 5.8 and 6.5 and 5.9 and 6.0.
In the case of `COc1cccc(N2C(=O)C(NC(=O)Nc3ccc(C)cc3)C(=O)Nc3ccccc32)c1` (stereo not shown) [Compound 5, 1-(1-(3-methoxyphenyl)-2,4-dioxo-2,3,4,5-tetrahydro-1H-benzo[b][1,4]diazepin-3-yl)-3-(p-tolyl)urea], the “Tc CYP51 Hill” value [1] is reported as 0.7, the Emax [1] is reported as 68% and the IC50 [1] is reported as 3.98 µM. The “fold more potent” value [1] was 10 fold, the “HLM CLi” value [2] was less than 0.4 mL/min/g and the “MLM CLi” value [3] was 1.6 mL/min/g. The PFI [4] was 7.8, the chromatographic logD [4] was 4.8 and the EC50 [5, 8] was greater than 50.1 µM. The IC50 ([5]; Chlorocebus sabaeus) was greater than 50.1 µM, the “Max Effect (Vero)” value ([5]; individual replicate) was 47 and 14 and 18 and 12 and the solubility [6] was 37 µM (≈ 15.9 µg/mL). The Emax [7] was 87%, the EC50 [7] was 2.51 µM and the IC50 [7] was 2.51 µM. For the same molecule, the “Hill slope (T. cruzi)” value [7] was 2.8 and 3.2, the “Max Effect (T. cruzi)” value [7] was 88 and 91 and the “pEC50 (T. cruzi)” value [7] was 5.7 and 5.5.
For `COc1ccc(CN2C(=O)C(N)C(=O)N(C3CC3)c3ccccc32)cc1` (stereo not shown) [Compound 19, 3-amino-1-cyclopropyl-5-(4-methoxybenzyl)-1,5-dihydro-2H-benzo[b][1,4]diazepine-2,4(3H)-dione], the “Tc CYP51 Hill” value [1] was 1.0, the Emax [1] was 94% and the IC50 [1] was 0.316 µM. For the same molecule, the “HLM CLi” value [2] was less than 0.4 mL/min/g, the “MLM CLi” value [3] was 11.8 mL/min/g and the PFI [4] was 5.2. The chromatographic logD [4] was 3.2, the EC50 [5, 8] was greater than 50.1 µM and the Emax ([5]; Chlorocebus sabaeus, Vero, individual replicate, read-out: Max Effect (Vero)) was 18%. For the same molecule, the IC50 ([5]; Chlorocebus sabaeus) was greater than 50.1 µM, the “Max Effect (Vero)” value ([5]; individual replicate) was 15 and 17 and 14 and the solubility [6] was greater than 442 µM. It also gave an Emax [7] of 88%, an EC50 [7] of 5.01 µM and an IC50 [7] of 3.98 µM. For the same molecule, the “Hill slope (T. cruzi)” value [7] was 14.2 and 4.9 and 13.0 and 5.9, the “Max Effect (T. cruzi)” value [7] was 87 and the “pEC50 (T. cruzi)” value [7] was 5.5 and 5.4.
With `COc1ccc(NC(=O)NC2C(=O)Nc3cccc(F)c3N(c3ccccc3)C2=O)cc1` (stereo not shown) [Compound 9, 1-(9-fluoro-2,4-dioxo-1-phenyl-2,3,4,5-tetrahydro-1H-benzo[b][1,4]diazepin-3-yl)-3-(4-methoxyphenyl)urea] the “Tc CYP51 Hill” value [1] was 1.3, the Emax [1] was 90% and the IC50 [1] was 10 µM. The “fold more potent” value [1] was 10 fold, the “HLM CLi” value [2] was less than 0.4 mL/min/g and the “MLM CLi” value [3] was less than 0.5 mL/min/g. The PFI [4] was 7.2, the chromatographic logD [4] was 4.2 and the EC50 [5, 8] was greater than 50.1 µM. For the same molecule, the IC50 ([5]; Chlorocebus sabaeus) was greater than 50.1 µM, the “Max Effect (Vero)” value ([5]; individual replicate) was 6 and 11 and -2.3 and 8 and the solubility [6] was less than 1 µM. It also gave an Emax [7] of 91%, an EC50 [7] of 0.501 µM and an IC50 [7] of 0.398 µM. For the same molecule, the “Hill slope (T. cruzi)” value [7] was 5.2 and 12.9 and 2.3 and 2.7, the “Max Effect (T. cruzi)” value [7] was 89 and 94 and the “pEC50 (T. cruzi)” value [7] was 6.5 and 6.4.
For `COc1ccc(CN2C(=O)C(N)C(=O)N(c3ccc(OC)nc3)c3ccccc32)cc1` (stereo not shown) [Compound 18, 3-amino-1-(4-methoxybenzyl)-5-(6-methoxypyridin-3-yl)-1,5-dihydro-2H-benzo[b][1,4]diazepine-2,4(3H)-dione], the “Tc CYP51 Hill” value [1] was 1.3, the Emax [1] was 100% and the IC50 [1] was 0.2 µM. The “HLM CLi” value [2] was less than 0.4 mL/min/g, the “MLM CLi” value [3] was 5.8 mL/min/g and the PFI [4] was 6.8. For the same molecule, the chromatographic logD [4] was 3.8, the EC50 [5, 8] was greater than 50.1 µM and the IC50 ([5]; Chlorocebus sabaeus) was greater than 50.1 µM. For the same molecule, the “Hill Slope (Vero)” value ([5]; individual replicate) was 3.7, the “Max Effect (Vero)” value ([5]; individual replicate) was 39 and 19 and 56 and 14 and the “pEC50 (Vero)” value ([5]; individual replicate) was 4.4. It also gave a solubility [6] greater than 332 µM, an Emax [7] of 75% and an EC50 [7] of 0.501 µM. The IC50 [7] was 0.501 µM, the “Hill slope (T. cruzi)” value [7] was 11.9 and 18.7 and 19.1 and 12.3 and the “Max Effect (T. cruzi)” value [7] was 86 and 77 and 83.
In the case of `COc1ccc(CN2C(=O)C(N)C(=O)N(c3ccc(F)cc3)c3ccccc32)cc1` (stereo not shown) [Compound 17, 3-amino-1-(4-fluorophenyl)-5-(4-methoxybenzyl)-1,5-dihydro-2H-benzo[b][1,4]diazepine-2,4(3H)-dione], the “Tc CYP51 Hill” value [1] is reported as 1.8, the Emax [1] is reported as 95% and the IC50 [1] is reported as 0.2 µM. The “HLM CLi” value [2] was less than 0.4 mL/min/g, the “MLM CLi” value [3] was 10.6 mL/min/g and the PFI [4] was 7.4. For the same molecule, the chromatographic logD [4] was 4.4, the EC50 [5, 8] was greater than 50.1 µM and the IC50 ([5]; Chlorocebus sabaeus) was greater than 50.1 µM. For the same molecule, the “Max Effect (Vero)” value ([5]; individual replicate) was 26 and 8 and 14 and 23, the solubility [6] was greater than 410 µM and the Emax [7] was 88%. The EC50 [7] was 0.501 µM, the IC50 [7] was 0.631 µM and the “Hill slope (T. cruzi)” value [7] was 24.4 and 25.4 and 12.5 and 3.5. For the same molecule, the “Max Effect (T. cruzi)” value [7] was 87 and 83 and the “pEC50 (T. cruzi)” value [7] was 6.2 and 6.0.
